Assay results taken from US10273235B2, “Compositions and methods for inhibiting β-lactamase” (LegoChem Biosciences, Inc., priority 2015, dated 2019).
Values joined by “and” are separate entries in the source; they are usually repeats but may differ in a detail not shown here. Equal values may be shown once. Read-outs that look alike come from different tables or passages of the source.

Experiments:
Assay type in all cases: cell-based
K. pneumoniae MP14 = test: BLI potentiation MIC, K. pneumoniae MP14; conditions: no BLI, incubation 19 h; for MIC: Klebsiella pneumoniae, MP14, 19 h
Procedure: (§1) MIC90 (μg/mL) is the lowest concentration of an antibiotic that will inhibit the visible growth of 90% of microorganisms after incubation as compared with a control group to which the antibiotic is not treated.
(§2) MIC values were measured by the broth microdilution method developed by the Clinical and Laboratory Standards Institute (CLSI) (see CLSI M07-A9, Methods for Dilution Antimicrobial Susceptibility Test for Bacteria that Grow Aerobically; Approved Standard-Ninth Edition (2012): CLSI, Villanova, Pa.). The in vitro antibacterial activity was measured with respect to the following 9 clinical isolates: P. aeruginosa (3 strains); K. pneumoniae (6 strains). The in vitro antibacterial activity of selected compounds was measured with respect to the following 15 clinical isolates: K. pneumoniae (15 strains).

E. coli TOPDXA048 = test: MIC of strain used for extraction of enzymes, E. coli TOPDXA048 (OXA-48, TEM-116, AmpC (NC_000913)); conditions: Escherichia coli
K. pneumoniae 5216 = test: BLI potentiation MIC, K. pneumoniae 5216 (TEM-1A); conditions: no BLI, incubation 19 h; for MIC: Klebsiella pneumoniae, 5216, 19 h
Procedure: as §1, §2

K. pneumoniae 6540 = test: BLI potentiation MIC, K. pneumoniae 6540; conditions: no BLI, incubation 19 h
Procedure: as §1, §2

K. pneumoniae 6839 = test: BLI potentiation MIC, K. pneumoniae 6839 (SHV-11, SHV-12, DHA-1); conditions: no BLI, incubation 19 h; for MIC: Klebsiella pneumoniae, 6839, 19 h
Procedure: as §1, §2

E. coli ECO200 = test: MIC of strain used for extraction of enzymes, E. coli ECO200 (NDM-1, TEM-1, CTX-M-15, EC (AmpC), OXA-2 type); conditions: Escherichia coli
K. pneumoniae 4248 = test: BLI potentiation MIC, K. pneumoniae 4248 (SHV-11, CTX-M-15, TEM-1, OXA-1); conditions: no BLI, incubation 19 h; for MIC: Klebsiella pneumoniae, 4248, 19 h
Procedure: as §1, §2

E. coli K0519020 = test: MIC of strain used for extraction of enzymes, E. coli K0519020 (CTX-M-15, TEM-1, OXA-1, AmpC (NC_000913)); conditions: Escherichia coli, K0519020, no BLI
K. pneumoniae KU2 = test: BLI potentiation MIC, K. pneumoniae KU2; conditions: Klebsiella pneumoniae, no BLI, incubation 19 h
Procedure: as §1, §2

P. aeruginosa ARC3506 = test: BLI potentiation MIC, P. aeruginosa ARC3506 (VEB-1, OXA-10, OprD−, AmpC); conditions: Pseudomonas aeruginosa, ARC3506, no BLI, incubation 19 h
Procedure: as §1, §2

K. pneumoniae NDM-506 = test: BLI potentiation MIC, K. pneumoniae NDM-506; conditions: Klebsiella pneumoniae, NDM506, no BLI, incubation 19 h
Procedure: as §1, §2

K. pneumoniae 5117 = test: BLI potentiation MIC, K. pneumoniae 5117 (SHV-11, TEM-1); conditions: no BLI, incubation 19 h; for MIC: Klebsiella pneumoniae, 5117, 19 h
Procedure: as §1, §2

K. pneumoniae CL5761 = test: MIC of strain used for extraction of enzymes, K. pneumoniae CL5761 (KPC-3, TEM-216, SHV-5); conditions: Klebsiella pneumoniae, CL5761, no BLI
Procedure: as §1, §2

K. pneumoniae 4006 = test: BLI potentiation MIC, K. pneumoniae 4006 (SHV-12, CTX-M-15, TEM-1, OXA-9); conditions: no BLI, incubation 19 h
Procedure: as §1, §2

K. pneumoniae 100 = test: BLI potentiation MIC, K. pneumoniae 100; conditions: Klebsiella pneumoniae, 100, no BLI, incubation 19 h
Procedure: as §1, §2

P. aeruginosa ATCC27853 = test: BLI potentiation MIC (broth microdilution), P. aeruginosa ATCC27853 (PoxB, AmpC); conditions: no BLI, incubation 19 h; for MIC: Pseudomonas aeruginosa, ATCC27853, 19 h
Procedure: as §1, §2

P. aeruginosa ARC3514 = test: BLI potentiation MIC, P. aeruginosa ARC3514 (KPC-2, OprD−, AmpC); conditions: no BLI, incubation 19 h; for MIC: Pseudomonas aeruginosa, ARC3514, 19 h
Procedure: as §1, §2

K. pneumoniae ATCC700603 = test: BLI potentiation MIC, K. pneumoniae ATCC700603 (SHV-3); conditions: no BLI, incubation 19 h
Procedure: as §1, §2

K. pneumoniae 3784 = test: BLI potentiation MIC, K. pneumoniae 3784 (SHV-11, SHV-12, DHA-1); conditions: no BLI, incubation 19 h; for MIC: Klebsiella pneumoniae, 3784, 19 h
Procedure: as §1, §2

K. pneumoniae 5971(KOX) = test: BLI potentiation MIC, K. pneumoniae 5971(KOX); conditions: no BLI, incubation 19 h; for MIC: Klebsiella pneumoniae, 19 h
Procedure: as §1, §2

K. pneumoniae 101 = test: BLI potentiation MIC, K. pneumoniae 101; conditions: no BLI, incubation 19 h; for MIC: Klebsiella pneumoniae, 101, 19 h
Procedure: as §1, §2

E. aerogenes K9911729 = test: MIC of strain used for extraction of enzymes, E. aerogenes K9911729 (CMY-10, TEM-1, SHV-12, AmpC (DQ478697)); conditions: Klebsiella aerogenes, K9911729, no BLI
K. pneumoniae 5576 = test: BLI potentiation MIC, K. pneumoniae 5576 (SHV-11, CMY-2, DHA-1, TEM-1); conditions: no BLI, incubation 19 h; for MIC: Klebsiella pneumoniae, 5576, 19 h
Procedure: as §1, §2

K. pneumoniae 7586 = test: BLI potentiation MIC, K. pneumoniae 7586; conditions: no BLI, incubation 19 h
Procedure: as §1, §2

K. pneumoniae 89 = test: BLI potentiation MIC, K. pneumoniae 89; conditions: no BLI, incubation 19 h
Procedure: as §1, §2

[1] = read-out: MIC of Meropenem alone
[2] = read-out: MIC of LCB10-0200 alone

C[C@@H](O)[C@H]1C(=O)N2C(C(=O)O)=C(S[C@@H]3CN[C@H](C(=O)N(C)C)C3)[C@H](C)[C@H]12 [Meropenem]
MIC (K. pneumoniae MP14; [1]): > 64 µg/mL | MIC of Meropenem alone (K. pneumoniae MP14): 64 µg/mL | MIC (E. coli TOPDXA048; TOPDXA048, read-out: MIC of Meropenem alone): 0.25 µg/mL | MIC (K. pneumoniae 5216; [1]): 64 µg/mL | MIC of Meropenem alone (K. pneumoniae 5216): 32 µg/mL | MIC (K. pneumoniae 6540; Klebsiella pneumoniae, 6540, 19 h, read-out: MIC of Meropenem alone): 1 µg/mL | MIC of Meropenem alone (K. pneumoniae 6540): 0.5 µg/mL | MIC (K. pneumoniae 6839; [1]): 4 µg/mL | MIC of Meropenem alone (K. pneumoniae 6839): 2 µg/mL | MIC (E. coli ECO200; ECO200, read-out: MIC of Meropenem alone): > 64 µg/mL | MIC (K. pneumoniae 4248; [1]): 0.125 µg/mL | MIC (E. coli K0519020; [1]): 1 µg/mL | MIC (K. pneumoniae KU2; [1]): > 64 µg/mL | MIC (P. aeruginosa ARC3506; [1]): 64 µg/mL | MIC (K. pneumoniae NDM-506; [1]): > 64 µg/mL | MIC (K. pneumoniae 5117; [1]): 8 µg/mL | MIC of Meropenem alone (K. pneumoniae 5117): 4 µg/mL | MIC (K. pneumoniae CL5761; [1]): > 64 µg/mL | MIC (K. pneumoniae 4006; Klebsiella pneumoniae, 4006, 19 h, read-out: MIC of Meropenem alone): 0.5 µg/mL | MIC of Meropenem alone (K. pneumoniae 4006): 1 µg/mL | MIC (K. pneumoniae 100; [1]): 4 µg/mL | MIC (P. aeruginosa ATCC27853; [1]): 2 µg/mL | MIC (P. aeruginosa ARC3514; [1]): > 64 µg/mL | MIC (K. pneumoniae ATCC700603; Klebsiella pneumoniae, ATCC700603, 19 h, read-out: MIC of Meropenem alone): 0.125 µg/mL | MIC of Meropenem alone (K. pneumoniae ATCC700603): 0.25 µg/mL | MIC (K. pneumoniae 3784; [1]): 2 µg/mL | MIC (K. pneumoniae 5971(KOX); [1]): 64 µg/mL | MIC of Meropenem alone (K. pneumoniae 5971(KOX)): 32 µg/mL | MIC (K. pneumoniae 101; [1]): > 64 µg/mL | MIC of Meropenem alone (K. pneumoniae 101): 64 µg/mL and 32 µg/mL | MIC (E. aerogenes K9911729; [1]): 0.5 µg/mL | MIC (K. pneumoniae 5576; [1]): 1 µg/mL | MIC of Meropenem alone (K. pneumoniae 5576): 2 µg/mL

CC(C)(O/N=C(\C(=O)N[C@@H]1C(=O)N2C(C(=O)[O-])=C(C[n+]3cnc(N)c(NCCNC(=O)c4cc(=O)c(O)cn4O)c3)CS[C@H]12)c1nc(N)sc1Cl)C(=O)O [LCB10-0200]
MIC (K. pneumoniae MP14; [2]): 0.125 µg/mL | MIC of LCB10-0200 alone (K. pneumoniae MP14): 0.25 μg/mL | MIC (E. coli TOPDXA048; TOPDXA048, read-out: MIC of LCB10-0200 alone): 0.25 µg/mL | MIC (K. pneumoniae 5216; [2]): > 64 µg/mL | MIC of LCB10-0200 alone (K. pneumoniae 5216): 64 μg/mL and 32 μg/mL | MIC (K. pneumoniae 7586; Klebsiella pneumoniae, 7586, 19 h, read-out: MIC of LCB10-0200 alone): 4 µg/mL | MIC of LCB10-0200 alone (K. pneumoniae 7586): 2 μg/mL | MIC (K. pneumoniae 6839; [2]): 32 µg/mL | MIC of LCB10-0200 alone (K. pneumoniae 6839): 16 μg/mL | MIC (E. coli ECO200; ECO200, read-out: MIC of LCB10-0200 alone): > 64 µg/mL | MIC (K. pneumoniae 4248; [2]): 2 µg/mL | MIC of LCB10-0200 alone (K. pneumoniae 4248): 4 μg/mL | MIC (E. coli K0519020; [2]): 64 µg/mL | MIC (K. pneumoniae 89; Klebsiella pneumoniae, 89, 19 h, read-out: MIC of LCB10-0200 alone): 0.125 µg/mL | MIC of LCB10-0200 alone (K. pneumoniae 89): 0.0625 μg/mL | MIC (K. pneumoniae KU2; [2]): 32 µg/mL | MIC (P. aeruginosa ARC3506; [2]): 2 µg/mL | MIC (K. pneumoniae NDM-506; [2]): > 64 µg/mL | MIC (K. pneumoniae 5117; [2]): 0.125 µg/mL | MIC of LCB10-0200 alone (K. pneumoniae 5117): 0.25 μg/mL | MIC (K. pneumoniae CL5761; [2]): 32 µg/mL | MIC (K. pneumoniae 100; [2]): 0.0625 µg/mL | MIC (P. aeruginosa ATCC27853; [2]): 0.25 µg/mL | MIC of LCB10-0200 alone (P. aeruginosa ATCC27853): 0.5 μg/mL | MIC (P. aeruginosa ARC3514; [2]): 0.25 µg/mL | MIC of LCB10-0200 alone (P. aeruginosa ARC3514): 0.5 μg/mL | MIC (K. pneumoniae 3784; [2]): 32 µg/mL | MIC of LCB10-0200 alone (K. pneumoniae 3784): 64 μg/mL | MIC (K. pneumoniae 5971(KOX); [2]): 32 µg/mL | MIC of LCB10-0200 alone (K. pneumoniae 5971(KOX)): 64 μg/mL | MIC (K. pneumoniae 101; [2]): 16 µg/mL | MIC of LCB10-0200 alone (K. pneumoniae 101): 32 μg/mL | MIC (E. aerogenes K9911729; [2]): 2 µg/mL | MIC (K. pneumoniae 5576; [2]): > 64 µg/mL | MIC of LCB10-0200 alone (K. pneumoniae 5576): 64 μg/mL and 32 μg/mL
